Results from patent US10947254B2, “Methods for treating ulcerative colitis using 3-((1R,3s,5S)-3-((7-((5-methyl-1H-pyrazol-3-yl)amino)-1,6-naphthyridin-5-yl)amino)-8-azabicyclo[3.2.1]octan-8-yl)propanenitrile” (priority 2015, dated 2021).

Assays:
[1] = system: oxazolone-induced colitis; assay: Mouse model of oxazolone-induced colitis; format: in vivo, BALB/C mice; conditions: mice, PO, 1, 3, and/or 10 mg/kg BID (doses up to 10 mg/kg BID)
Experimental: Assay 7: Mouse Model of Oxazalone-Induced Colitis
Oxazolone-induced colitis is an experimental model that has a histological resemblance to human ulcerative colitis (Heller et al. Immunology, 2002, 17, 629-638). Adult BALB/C mice from Harlan were used in the assay. On day 1, animals were lightly anesthetized with isoflurane and the hairs between the shoulder were carefully removed before oxazolone (4%, 150 μL, 4:1 acetone:olive oil formulation) or vehicle solution was slowly applied for skin sensitization. Seven days after skin sensitization, the mice were fasted overnight, anesthetized with isoflurane inhalation, and a 1 mL syringe equipped with a 3.5-F catheter, filled with oxazolone solution, was inserted carefully about 4 cm into the colon of the mouse. Following insertion, 50 μL of the oxazolone solution (1%, 1:1 ethanol:water formulation) was injected very slowly (over 30 sec using an injection pump) into the colon. The catheter was removed and the mice were held vertically (head down) for 2 min to ensure that the entire oxazolone solution remained inside the colon. Drug treatment (PO, BID or TID) or vehicle was initiated a day prior to the oxazolone intrarectal (IR) challenge. Two-day post oxazolone intrarectal challenge, the Disease Activity Index (DAI) was assessed by treatment-blinded experimenters for each mouse according to the criteria score: stool consistency score (0, normal; 2, loose; 4, diarrhea), gross bleeding score (0, absence; 2, blood tinged; 4, presence), and weight loss score (0, none; 1, 1%-5%; 2, 5%-10%; 3, 10%-20%; 4, more than 20%); DAI=average of (stool consistency score+gross bleeding score+weight loss score).
Selected compounds of the invention were tested in the assay. Efficacy in the model is evidenced by a decrease in DAI score as compared with the score from vehicle treated animals.

[2] = system: IL-4 induced STAT6 phosphorylation in THP-1 human monocytic cells; conditions: THP-1 cells
[3] = system: IL-13 induced STAT6 phosphorylation in BEAS-2B human lung epithelial cells; conditions: BEAS-2B cells

SMILES: Cc1cc(Nc2cc3ncccc3c(N[C@@H]3C[C@H]4CCC[C@@H](C3)N4CC(=O)N(C)C)n2)n[nH]1 [Example 1-38]
- decrease in DAI score as compared with vehicle treated animals [1]: statistically significant decrease

SMILES: Cc1cc(Nc2cc3ncccc3c(N[C@@H]3C[C@H]4CC[C@@H](C3)N4CCF)n2)n[nH]1 [Example 2, N^5-((1R,3s,5S)-8-(2-fluoroethyl)-8-azabicyclo[3.2.1]octan-3-yl)-N^7-(5-methyl-1H-pyrazol-3-yl)-1,6-naphthyridine-5,7-diamine]
- decrease in DAI score as compared with vehicle treated animals [1]: statistically significant decrease

SMILES: CCC(=O)N1[C@@H]2CC[C@H]1C[C@H](Nc1nc(Nc3cc(C)[nH]n3)cc3ncccc13)C2 [Example 2-1]
- decrease in DAI score as compared with vehicle treated animals [1]: did not exhibit a statistically significant decrease

SMILES: Cc1cc(Nc2cc3ncccc3c(NC3CC4CCCC(C3)N4C(=O)C(C)O)n2)n[nH]1 (stereo not shown) [Example 2-16]
- decrease in DAI score as compared with vehicle treated animals [1]: did not exhibit a statistically significant decrease

SMILES: Cc1cc(Nc2cc3ncccc3c(N[C@@H]3C[C@H]4CC[C@@H](C3)N4S(=O)(=O)c3cccnc3)n2)n[nH]1 [Example 3, N^7-(5-methyl-1H-pyrazol-3-yl)-N^5-((1R,3s,5S)-8-(pyridin-3-ylsulfonyl)-8-azabicyclo[3.2.1]octan-3-yl)-1,6-naphthyridine-5,7-diamine]
- decrease in DAI score as compared with vehicle treated animals [1]: statistically significant decrease

SMILES: Cc1cc(Nc2cc3ncccc3c(N[C@@H]3C[C@H]4CCC[C@@H](C3)N4C(=O)CN(C)C)n2)n[nH]1 [Example 4, 2-(Dimethylamino)-1-((1R,3s,5S)-3-((7-((5-methyl-1H-pyrazol-3-yl)amino)-1,6-naphthyridin-5-yl)amino)-9-azabicyclo[3.3.1]nonan-9-yl)ethan-1-one]
- decrease in DAI score as compared with vehicle treated animals [1]: statistically significant decrease

SMILES: Cc1cc(Nc2cc3ncccc3c(N[C@@H]3C[C@H]4CC[C@@H](C3)N4S(=O)(=O)C3CC3)n2)n[nH]1 [Example 4-4]
- decrease in DAI score as compared with vehicle treated animals [1]: did not exhibit a statistically significant decrease

SMILES: Cc1cc(Nc2cc3ncccc3c(N[C@@H]3C[C@H]4CC[C@@H](C3)N4C(=O)C(F)F)n2)n[nH]1 [Example 5, 2,2-difluoro-1-((1R,3s,5S)-3-((7-((5-methyl-1H-pyrazol-3-yl)amino)-1,6-naphthyridin-5-yl)amino)-8-azabicyclo[3.2.1]octan-8-yl)ethan-1-one]
- decrease in DAI score as compared with vehicle treated animals [1]: statistically significant decrease

SMILES: COc1ccc2c(N[C@@H]3C[C@H]4CCC[C@@H](C3)N4CCC#N)nc(Nc3cc(C)[nH]n3)cc2n1 [Example 5-10]
- THP-1 IL4 pIC50 [2]: A (A represents a pEC50 value ≥7.5 (EC50≤32 nM))
- BEAS2B pIC50 [3]: A (A represents a pEC50 value ≥7.5 (EC50≤32 nM))

SMILES: Cc1cc(Nc2cc3nc(CN4CCOCC4)ccc3c(N[C@@H]3C[C@H]4CCC[C@@H](C3)N4S(=O)(=O)c3cccnc3)n2)n[nH]1 [Example 5-27]
- THP-1 IL4 pIC50 [2]: A (A represents a pEC50 value ≥7.5 (EC50≤32 nM))
- BEAS2B pIC50 [3]: A (A represents a pEC50 value ≥7.5 (EC50≤32 nM))

SMILES: Cc1cc(Nc2cc3nc(CN4CCOCC4)ccc3c(N[C@@H]3C[C@H]4CCC[C@@H](C3)N4S(=O)(=O)c3cncc(F)c3)n2)n[nH]1 [Example 5-30]
- THP-1 IL4 pIC50 [2]: A (A represents a pEC50 value ≥7.5 (EC50≤32 nM))
- BEAS2B pIC50 [3]: A (A represents a pEC50 value ≥7.5 (EC50≤32 nM))

SMILES: COCCS(=O)(=O)N1[C@@H]2CC[C@H]1C[C@H](Nc1nc(Nc3cc(C)[nH]n3)cc3ncccc13)C2 [Example 6, N^5-((1R,3s,5S)-8-((2-methoxyethyl)sulfonyl)-8-azabicyclo[3.2.1]octan-3-yl)-N^7-(5-methyl-1H-pyrazol-3-yl)-1,6-naphthyridine-5,7-diamine]
- decrease in DAI score as compared with vehicle treated animals [1]: statistically significant decrease

SMILES: Cc1cnc2cc(Nc3cc(C)[nH]n3)nc(N[C@@H]3C[C@H]4CC[C@@H](C3)N4CCC#N)c2c1 [Example 6-1]
- THP-1 IL4 pIC50 [2]: A (A represents a pEC50 value ≥7.5 (EC50≤32 nM))
- BEAS2B pIC50 [3]: A (A represents a pEC50 value ≥7.5 (EC50≤32 nM))

SMILES: Cc1cnc2cc(Nc3cc(C)[nH]n3)nc(N[C@@H]3C[C@H]4CCC[C@@H](C3)N4CCC#N)c2c1 [Example 6-6]
- THP-1 IL4 pIC50 [2]: A (A represents a pEC50 value ≥7.5 (EC50≤32 nM))
- BEAS2B pIC50 [3]: A (A represents a pEC50 value ≥7.5 (EC50≤32 nM))

SMILES: Cc1cnc2cc(Nc3cc(C)[nH]n3)nc(N[C@@H]3C[C@H]4CCC[C@@H](C3)N4S(=O)(=O)N3CC(C#N)C3)c2c1 [Example 6-9]
- THP-1 IL4 pIC50 [2]: A (A represents a pEC50 value ≥7.5 (EC50≤32 nM))
- BEAS2B pIC50 [3]: A (A represents a pEC50 value ≥7.5 (EC50≤32 nM))

SMILES: COc1cnc2cc(Nc3cc(C)[nH]n3)nc(N[C@@H]3C[C@H]4CC[C@@H](C3)N4CC(C)C)c2c1 [Example 6-14]
- THP-1 IL4 pIC50 [2]: A (A represents a pEC50 value ≥7.5 (EC50≤32 nM))
- BEAS2B pIC50 [3]: A (A represents a pEC50 value ≥7.5 (EC50≤32 nM))

SMILES: COc1cnc2cc(Nc3cc(C)[nH]n3)nc(N[C@@H]3C[C@H]4CC[C@@H](C3)N4CCC(F)(F)F)c2c1 [Example 6-15]
- THP-1 IL4 pIC50 [2]: A (A represents a pEC50 value ≥7.5 (EC50≤32 nM))
- BEAS2B pIC50 [3]: A (A represents a pEC50 value ≥7.5 (EC50≤32 nM))

SMILES: COc1cnc2cc(Nc3cc(C)[nH]n3)nc(N[C@@H]3C[C@H]4CCC[C@@H](C3)N4Cc3ccncc3)c2c1 [Example 6-28]
- THP-1 IL4 pIC50 [2]: A (A represents a pEC50 value ≥7.5 (EC50≤32 nM))
- BEAS2B pIC50 [3]: A (A represents a pEC50 value ≥7.5 (EC50≤32 nM))

SMILES: COc1cnc2cc(Nc3cc(C)[nH]n3)nc(N[C@@H]3C[C@H]4CCC[C@@H](C3)N4S(C)(=O)=O)c2c1 [Example 6-29]
- THP-1 IL4 pIC50 [2]: A (A represents a pEC50 value ≥7.5 (EC50≤32 nM))
- BEAS2B pIC50 [3]: A (A represents a pEC50 value ≥7.5 (EC50≤32 nM))

SMILES: COc1cnc2cc(Nc3cc(C)[nH]n3)nc(N[C@@H]3C[C@H]4CCC[C@@H](C3)N4CCC#N)c2c1 [Example 6-31]
- THP-1 IL4 pIC50 [2]: A (A represents a pEC50 value ≥7.5 (EC50≤32 nM))
- BEAS2B pIC50 [3]: A (A represents a pEC50 value ≥7.5 (EC50≤32 nM))

SMILES: COC(=O)c1cnc2cc(Nc3cc(C)[nH]n3)nc(N[C@@H]3C[C@H]4CCC[C@@H](C3)N4CCC#N)c2c1 [Example 6-47]
- THP-1 IL4 pIC50 [2]: A (A represents a pEC50 value ≥7.5 (EC50≤32 nM))
- BEAS2B pIC50 [3]: A (A represents a pEC50 value ≥7.5 (EC50≤32 nM))

SMILES: CCS(=O)(=O)N1[C@@H]2CC[C@H]1C[C@H](Nc1nc(Nc3cc(C)[nH]n3)cc3ncccc13)C2 [Example 7, N^5-((1R,3s,5S)-8-(ethylsulfonyl)-8-azabicyclo[3.2.1]octan-3-yl)-N^7-(5-methyl-1H-pyrazol-3-yl)-1,6-naphthyridine-5,7-diamine]
- decrease in DAI score as compared with vehicle treated animals [1]: did not exhibit a statistically significant decrease

SMILES: Cc1cc(Nc2cc3ncccc3c(N[C@@H]3C[C@H]4CCC[C@@H](C3)N4S(=O)(=O)c3cccnc3)n2)n[nH]1 [Example 8, N^7-(5-methyl-1H-pyrazol-3-yl)-N^5-((1R,3s,5S)-9-(pyridin-3-ylsulfonyl)-9-azabicyclo[3.3.1]nonan-3-yl)-1,6-naphthyridine-5,7-diamine]
- decrease in DAI score as compared with vehicle treated animals [1]: statistically significant decrease

SMILES: Cc1cc(Nc2nc(N[C@@H]3C[C@H]4CC[C@@H](C3)N4S(C)(=O)=O)c3cccnc3c2F)n[nH]1 [Example 8-2]
- THP-1 IL4 pIC50 [2]: A (A represents a pEC50 value ≥7.5 (EC50≤32 nM))
- BEAS2B pIC50 [3]: C (C represents a pEC50 value <6.7 (EC50>200 nM))

SMILES: Cc1cc(Nc2nc(N[C@@H]3C[C@H]4CCC[C@@H](C3)N4S(C)(=O)=O)c3cccnc3c2F)n[nH]1 [Example 8-10]
- THP-1 IL4 pIC50 [2]: A (A represents a pEC50 value ≥7.5 (EC50≤32 nM))
- BEAS2B pIC50 [3]: A (A represents a pEC50 value ≥7.5 (EC50≤32 nM))

SMILES: Cc1cc(Nc2nc(N[C@@H]3C[C@H]4CCC[C@@H](C3)N4S(=O)(=O)c3cccnc3)c3cccnc3c2F)n[nH]1 [Example 8-12]
- THP-1 IL4 pIC50 [2]: A (A represents a pEC50 value ≥7.5 (EC50≤32 nM))
- BEAS2B pIC50 [3]: A (A represents a pEC50 value ≥7.5 (EC50≤32 nM))

SMILES: Cc1cc(Nc2nc(N[C@@H]3C[C@H]4CCC[C@@H](C3)N4Cc3ccncc3)c3cccnc3c2F)n[nH]1 [Example 8-14]
- THP-1 IL4 pIC50 [2]: A (A represents a pEC50 value ≥7.5 (EC50≤32 nM))
- BEAS2B pIC50 [3]: A (A represents a pEC50 value ≥7.5 (EC50≤32 nM))
